# According to a melting point compilation (Tetko et al.; mined from patent text by program, amines drawn as free bases though some values may be those of a salt):
row,melting point [°C],Structure (SMILES)
1,161 to 162,O=[N+]([O-])c1ccc(S(=O)(=O)NCc2ccc(Cl)cc2)c([N+](=O)[O-])c1
2,148 to 149,N#CCCNC(=O)c1cccc(-c2ccc3c(c2)N(Cc2ccc(Cl)cc2Cl)CC3)c1
3,133,CN1CCC(c2c[nH]c3ccc(C(=O)c4ccc(Cl)cc4)cc23)CC1
4,148,OC12N=C(c3ccccc3)SC1(Br)Cc1cc(Cl)ccc12 (stereo not given)
5,151 to 153,CCOc1ccnc2c1c(C(C)=O)cn2S(=O)(=O)c1ccccc1
6,76 to 77,CC(C)Cc1ccc(-c2ccccc2C(C)C(=O)O)cc1 (stereo not given)
7,135 to 137,CN1CCCN(Cc2nc(-c3ccc4c(c3)Nc3ccccc3S4)cs2)CC1
8,84.2 to 86.1,COc1ccc(Cn2cc(C(F)(F)F)ccc2=O)cc1
9,232 to 233,CCc1cn(C2CC(O)C(CS(=O)(=O)Cc3ccccc3)O2)c(=O)[nH]c1=O (stereo not given)
10,97 to 98,Cc1nc(CCOc2ccc([N+](=O)[O-])cc2)c(C)o1
11,272 to 274,Nn1c2c(c3ccccc3c1=O)C(=O)c1ccccc1-2
12,98,CN(C)c1ccc(-c2cc(C(F)(F)F)c3c(-c4ccccc4)nn(COCC[Si](C)(C)C)c3n2)cc1
13,170 to 171,CC(C)(C)NCC(O)COc1ccc2c(=O)cc(-c3cc(OCc4ccccc4)cc(OCc4ccccc4)c3)oc2c1 (stereo not given)
14,246 to 250,Cc1ccc(-c2ccc3cc(C(=O)Nc4ccc(CN(C)C5CCOCC5)cc4)[nH]c3c2)cc1
15,103 to 104,"Cc1cccc(Sc2ccc3c(c2)CCC2N(C)C(=O)CCC32C)c1 (single isomer, unassigned; (+))"
16,138 to 139,COc1cccc(-c2ccc(C(=O)NCCOc3ccc(CC(Oc4ccc(C(C)C)cc4)C(=O)O)cc3)cc2)c1 (stereo not given)
17,150 to 152,CCOC(=O)c1coc(-c2ccc(Cn3cnc4ccccc43)cc2)n1
18,218 to 220,O=C(CO)N1CCN(c2ccc(Nc3cc(-c4cnc5cc[nH]c5c4)cn4ccnc34)nc2)CC1
19,174 to 175,COc1ccc(CC2SC(=O)NC2=O)c2c1N(Cc1ccc(N)cc1)C(=O)CC2 (stereo not given)
20,62 to 64,CC(C)(C)OC(=O)COc1ccc([N+](=O)[O-])cc1F
21,262,CC(C)(C)NC(=O)c1ccc(S(=O)(=O)N2C(=O)C(C)(c3ccccc3Cl)c3cc(O)ccc32)cc1 (stereo not given)
22,142,CCCc1nc(SC(F)F)c(C(=O)O)n1Cc1ccc(-c2ccccc2S(=O)(=O)NC(=O)NCc2cccs2)cc1
23,70 to 79,COc1cc(N2CCCN(C[C@@H](C)O)CC2)ccc1Nc1ncc2ccc(-c3ccccc3OC)n2n1
24,> 300,COc1ccc(-n2c(=O)c(O)nc3cccnc32)cc1
25,80 to 82,CC(C(=O)O)c1c(Sc2ccccc2)c2cc(F)ccc2n1Cc1ccc(Cl)cc1 (stereo not given)

row,melting point [°C],Structure (SMILES)
1,183 to 184,O=C(COc1cc(=O)oc2ccccc12)c1ccccc1
2,220 to 222,CC1CCCC(C)N1Cc1ccc2cc(NC(=O)c3ccc(-c4ccc(Cl)cc4)cc3)ccc2c1 (stereo not given)
3,255 to 257,O=c1ncn(Cc2ccc(Cl)cc2)c2cc(-c3ccc(OCc4cccnc4)cc3)sc12
4,152 to 154,Cc1ccccc1-c1ccc(C(=O)N2Cc3ccc(C(=O)NC(C)CCc4ccccc4)n3Cc3ccccc32)cc1C (stereo not given)
5,100 to 103,COC(=O)c1ccc(C(=O)NCc2cccc(O)c2)cc1C
6,215 to 217,COc1cccc2c(=O)c(OCC(=O)O)coc12
7,137,CC#CCOc1ccc(SC(C(=O)O)c2ccc(-c3cccs3)cc2)cc1 (stereo not given)
8,81,CCN(CC)C(=O)Oc1nc(-c2ccccc2)cc2ccccc12
9,85 to 86,CCC(CC)c1nn(-c2ccc(Cl)cn2)cc1CCCOc1c(CC(=O)O)cccc1OC
10,207 to 208,CC(C)C(=O)NCCCC1COCc2nc3c(N)nc4ccccc4c3n21 (stereo not given)
11,99 to 100,CC(C)CCNc1c([N+](=O)[O-])cnc2ccccc12
12,161 to 162,COc1cccc(C=C2C(=O)c3ccccc3N2C(C)=O)c1[N+](=O)[O-]
13,184 to 185,Cc1cc2c(s1)S(=O)(=O)N(C)C(=O)C2C(=O)Nc1ccccc1 (stereo not given)
14,127 to 131,CC(C)NCCNc1nc(Nc2cccc(NS(C)(=O)=O)c2)nc2[nH]ccc12
15,182 to 184,COc1ccc(N2CCN(Cc3n[nH]c4cc(Cl)ccc34)CC2)cc1
16,144 to 146,Cn1c(-c2ccc(-c3nccs3)cc2)cnc1[C@H](Cc1ccccn1)N(C=O)c1cc2cc(Cl)ccc2o1
17,227 to 229,NC1=NC(Br)=C(c2ccc(C(F)(F)F)cc2)c2ccccc2C1
18,122 to 124,COc1ccc2nc(-c3ccccc3)cc(CCNC(=O)C(F)(F)F)c2c1
19,171 to 172,CCOc1ccc(CC2SC(=N)NC2=O)cc1OCC (stereo not given)
20,162 to 165,CCOC(=O)CCC1(c2c[nH]cn2)Cc2ccccc2C1=O (stereo not given)
21,114 to 116,COc1ccc(OCc2ccccc2)cc1C(=O)O
22,201 to 203,NC(=O)c1sc2ncnc(-c3cccc(NC(=O)Nc4cccc(C(F)(F)F)c4)c3)c2c1N
23,179,CS(=O)c1ccc(CSc2nc(-c3ccc(F)cc3)c(-c3ccnc(Cl)c3)[nH]2)cc1 (stereo not given)
24,225 to 226,Cc1c(-c2ccccc2)n[nH]c1-c1ccccc1
25,70,N#Cc1ccc(C(Cc2ccc(OC(F)(F)F)cc2)Cn2cncn2)cc1 (stereo not given)

# The next lines start with the compound.
row,Structure (SMILES),melting point [°C]
1,CCCCC12COC(c3ccc(Br)cc3)(OC1)SC2,110 to 112
2,Cn1nnnc1S(=O)CCCCS(=O)(=O)c1nnnn1C (stereo not given),147 to 149
3,CCOC(=O)CNC(=O)CCl,60 to 62
4,CCCCCC(C)C(C)c1cc(O)c2c(c1)OC(C)(C)C1=C2CN(CC(=O)NC(=O)NC)CC1 (stereo not given),145 to 147
5,CC1SC(=O)NN=C1c1ccc(N2CCC(N)CC2)c([N+](=O)[O-])c1 (stereo not given),154 to 157
6,CSc1nn2c(Cl)cc(Cl)nc2c1S(=O)(=O)c1ccccc1,193 to 197
7,CCCCNC1=NS(=O)(=O)c2sc(Cl)cc2N1,218 to 219
8,CCN(CC)CCOC(=O)N1CCC(NC(=O)c2ccccc2)CC1,78 to 82
9,Cc1nc(C)c(Cl)c(NCc2cccc(O)c2)n1,194 to 197
10,COc1ccc(C(=O)C=CN(C)C)cc1,82 to 85
11,COc1ccc(-c2nc(N)sc2CCC2CCCCC2)c(OC)c1,122
12,CS(=O)(=O)N(c1ccc([N+](=O)[O-])cn1)S(C)(=O)=O,175 to 177
13,Cn1c(Sc2cc(C(F)(F)F)ccc2C(=O)O)n[nH]c1=O,229
14,COC(=O)c1cc2ccnc(N)c2[nH]1,> 300
15,Cc1ccc2cc(C(=O)NC3(C(=O)O)CCCC3)sc2c1,214 to 217
16,N#Cc1cc(NC(=O)c2csc3c2CCCC3)ccc1N1CCC(O)CC1,172 to 173
17,CC(C)(C)NC(=O)c1nn(-c2ccc(C(C)(C)C)cc2)c2c1C1CCC2C1 (stereo not given),148 to 150
18,CCN1C(=O)CN=C(c2ccccc2F)c2cc(C(C)O)ccc21 (stereo not given),48 to 50
19,c1ccc2c(c1)N(CC1CCCCC1)CC21COc2cc3c(cc21)OCO3 (stereo not given),153 to 154
20,CCOC12CCC(=O)C3(C)Oc4c(OC)ccc5c4C31CCN(CCc1ccccc1)C2C5 (stereo not given),86 to 89
21,CS(=O)(=O)c1c[nH]c(=O)c(I)c1,273 to 276
22,O=C(O)CC1CCCc2c1[nH]c1ccc(F)cc21 (stereo not given),124 to 126
23,CC/C=C\CCCCCCCCCCOc1ccc(C(C)=O)o1,36 to 38
24,NC(=O)c1sc2nccc(N3CCN(c4ccccn4)CC3)c2c1N,266 to 270
25,COC(=O)C1CCCn2c(=O)n(CCCl)c(=O)n21 (stereo not given),94 to 95

row,Structure (SMILES),melting point [°C]
1,c1cn(-c2ccc(N3CCNCC3)cc2)cn1,177 to 180
2,O=C(O)C1CN(S(=O)(=O)c2ccc3cc(Cl)ccc3c2)CCN1C(=O)C1CCN(c2ccncc2)CC1 (stereo not given),215 to 220
3,CCCN1CCCC1Cc1cccc(NC(N)=O)c1 (stereo not given),101 to 104
4,CCCCNC(=S)Nc1ccccc1N1CCOCC1,105
5,Cc1nc(C(=O)NS(=O)(=O)c2c(C)csc2C)no1,164
6,CS(=O)(=O)c1ccc(-c2cc(C(CCCCCO[N+](=O)[O-])=NO)nn2C2CCCCC2)cc1,111 to 113
7,CN1C(C(=O)OCCO)=C(O)c2ccccc2S1(=O)=O,122 to 123
8,COc1cccc2c(Cl)nc(C)nc12,101 to 102
9,CC(C)COC1OC(CO)C(O)C(O)C1(O)N(C(=O)N(CCCl)N=O)C1CCCCC1 (stereo not given),87 to 89
10,COC(=O)[C@@H](O)[C@@H](OC(C)=O)[C@H](OC(C)=O)[C@H](C=O)OC(C)=O,104 to 110
11,COc1cc2nc(C)nc(Cl)c2cc1OC,182 to 184
12,CN1CCN(c2cc(NC(=O)OC(C)(C)C)c([N+](=O)[O-])cc2I)CC1,134 to 136
13,Cc1ccc(SCc2ncon2)cc1,53
14,O=C1CCN(C(=O)c2ccc(Cl)cc2Cl)c2cc(Cl)ccc21,159 to 163
15,O=C(NC[C@H]1CN(c2ccc(C3C=CS(=O)(=O)CC3)cc2)C(=O)O1)C(F)F (stereo not given in full),135 to 136
16,O=C(CCN1CCCCC1)Nc1ccc2[nH]c3ccc(NC(=O)CCN4CCCCC4)cc3c(=O)c2c1,> 320
17,Cc1oc(=O)oc1CSc1ccc(Cl)cc1,54 to 57
18,CC(C)(C)OC(=O)N1C[C@@H]([C@H]2COC(C)(C)O2)CC1=O,106 to 108
19,CCN1OCC(=O)N(c2cc(Cl)ccc2C)C1=S,119 to 121
20,CCCN1C(=O)N(CCC)C(=O)C2(CC=C3C(CCC4=Cc5c(cnn5-c5ccc(F)cc5)CC43C)O2)C1=O (stereo not given),81 to 82
21,Cc1nc2ccc(C(C)(C)CNC=O)cc2[nH]1,57 to 60
22,CCC(C)OC1OCC(O)(N(CC(C)C)C(=O)N(CCCl)N=O)C(O)C1O (stereo not given),63 to 65
23,CC(C)(C)OC(=O)NCCCCC(=O)NCCC(=O)O,70
24,CS(=O)(=O)N1CCOc2ccc(C3=NNC(=O)CC3)cc21,245
25,CC1(C)CC([N+]([O-])=Cc2ccccc2)CC(C)(C)N1,113
